According to article PMC9965125, “New NSAID Conjugates as Potent and Selective COX-2 Inhibitors: Synthesis, Molecular Modeling and Biological Investigation” (Molecules, 2023):
“And” between values parts separate entries of the source, which are not always exact repeats. Equal entries are not always repeated.

Legend:
hot plate latency = test: hot plate assay (central analgesic); type: in vivo, mice; settings: for % Protection / Latency Period ± SE: 10 mg/kg indomethacin mol equivalent i.p.; for Latency Period ± SE: cutoff 15 sec; for Potency: at 120 min compared to indomethacin
[1] = test system: carrageenan induced paw edema; test: carrageenan-induced rat paw edema; type: in vivo; settings: for % Inhibition of Edema ± Standard Error / Mean Edema Thickness: 10 mg/kg indomethacin mol equivalent i.p.; for Mean Edema Thickness: ± standard error
iNOS mRNA = settings: 40 μg/mL; in comparison to LPS-stimulated cells only
Protocol: (§1) For this purpose, the mRNA levels of IL-6, TNF-α, and iNOS were measured using real-time qPCR (RT-qPCR).
(§2) Treatment of LPS-stimulated RAW264.7 macrophages was done with 40 µg/mL of the isolated
(§3) Evaluation of inflammatory mRNA expression levels
(§4) Inflammatory mRNA expression levels were evaluated using RT-qPCR (Applied Biosystems, CA, USA). Total RNA was extracted by lysing RAW264.7 cells using Qiazol Lysis Reagent. The extracted RNA was used to synthesize cDNA using RevertAid First Strand cDNA synthesis kit according to manufacturer’s protocol. The cDNA was then added with forward and reverse
(§5) primers, nuclease free water and maxima SYBR green mix (Thermo Fisher Scientific, MA, USA).
(§6) The inflammation-related genes of mRNA expression levels are as follows: IL-6, TNF-α, and
(§7) iNOS. All expression was normalized to GAPDH (endogenous control) and relative fold mRNA
(§8) expression levels were calculated using the comparative 2 −ΔΔCT method. The PCR reaction consists
(§9) of initiation stage at 95 °C for 10 min, after that 40 PCR cycles of d enaturation stage for 15 s at 95
(§10) °C and annealing and extension for 1 min at 60 °C.

IL-6 mRNA = settings: 40 μg/mL; in comparison to LPS-stimulated cells only
Protocol: as §1, §2, §3, §4, §5, §6, §7, §8, §9, §10

[2] = test system: LPS-stimulated RAW264.7 macrophages; test: NO production of LPS-induced RAW264.7 (Griess method); type: cell-based; settings: 40 μg/mL; LPS 10 ng/mL; LPS only 22 μM, baseline 12.8 μM
TNF-α mRNA = settings: 40 μg/mL; in comparison to LPS-stimulated cells only
Protocol: as §1, §2, §3, §4, §5, §6, §7, §8, §9, §10

Compound: C#CCOC(=O)C(C)c1ccc(CC(C)C)cc1 (stereo not drawn) [Compound 3, Prop-2-yn-1-yl 2-(4-isobutylphenyl) Propanoate]
- % Protection (hot plate latency; after 30 min): 55.2%
- Latency Period ± SE (hot plate latency; after 30 min): 10.37 ± 1.6 s
- % Protection (hot plate latency; after 60 min): 48.3%
- Latency Period ± SE (hot plate latency; after 60 min): 10.78 ± 2.1 s
- % Protection (hot plate latency; after 90 min): 19.2%
- Latency Period ± SE (hot plate latency; after 90 min): 10.62 ± 2.2 s
- % Protection (hot plate latency; after 120 min): 14.9%
- Latency Period ± SE (hot plate latency; after 120 min): 10.35 ± 1.7 s
- Potency (hot plate latency): 26.4
- % Inhibition of Edema ± Standard Error ([1]; 1 h): 15.8 ± 1.9%
- Mean Edema Thickness ([1]; 1 h): 0.727 ± 0.05 mm
- % Inhibition of Edema ± Standard Error ([1]; 2 h): 17.4 ± 0.9%
- Mean Edema Thickness ([1]; 2 h): 0.589 ± 0.01 mm
- % Inhibition of Edema ± Standard Error ([1]; 3 h, 10 mg/kg): 85.8% and 85.8 ± 1.1%
- Mean Edema Thickness ([1]; 3 h): 0.103 ± 0.04 mm
- % Inhibition of Edema ± Standard Error ([1]; 4 h): 33.7 ± 1.2%
- Mean Edema Thickness ([1]; 4 h): 0.473 ± 0.03 mm
- % Inhibition of Edema ± Standard Error ([1]; 24 h): 0.00 ± 0.3%
- Mean Edema Thickness ([1]; 24 h): 0.920 ± 0.02 mm
- % Potency ([1]; % inhibition of edema thickness relative to indomethacin at 3 h): 105.8%

Compound: Cc1ccc(-n2cc(COC(=O)C(C)c3ccc(CC(C)C)cc3)nn2)cc1 (stereo not drawn) [Compound 5d, (1-(p-Tolyl)-1H-1,2,3-triazol-4-yl)methyl 2-(4-isobutylphenyl)propanoate]
- reduction in iNOS mRNA levels (iNOS mRNA): 59%
- reduction in IL-6 mRNA levels (IL-6 mRNA): 66.2%
- LPS-stimulated NO production (nitrite) [2]: 1.45 ± 1.3 µM
- % Protection (hot plate latency; after 30 min): 65.0%
- Latency Period ± SE (hot plate latency; after 30 min): 11.02 ± 1.4 s
- % Protection (hot plate latency; after 60 min): 35.6%
- Latency Period ± SE (hot plate latency; after 60 min): 9.86 ± 0.7 s
- % Protection (hot plate latency; after 90 min): 20.0%
- Latency Period ± SE (hot plate latency; after 90 min): 10.69 ± 0.9 s
- % Protection (hot plate latency; after 120 min): 1.2%
- Latency Period ± SE (hot plate latency; after 120 min): 9.12 ± 1.1 s
- Potency (hot plate latency): 2.1
- % Inhibition of Edema ± Standard Error ([1]; 24 h): 0.00 ± 1.7%
- reduction in TNF-α mRNA levels (TNF-α mRNA): 72%

Compound: COc1ccccc1-n1cc(COC(=O)C(C)c2ccc(CC(C)C)cc2)nn1 (stereo not drawn) [Compound 5e, (1-(2-Methoxyphenyl)-1H-1,2,3-triazol-4-yl)methyl 2-(4-isobutylphenyl)propanoate]
- reduction in iNOS mRNA levels (iNOS mRNA): 42%
- reduction in IL-6 mRNA levels (IL-6 mRNA): 82%
- LPS-stimulated NO production (nitrite) [2]: insignificant decrease
- % Protection (hot plate latency; after 30 min): 88.8%
- Latency Period ± SE (hot plate latency; after 30 min): 12.61 ± 2.1 s
- % Protection (hot plate latency; after 60 min): 44.8%
- Latency Period ± SE (hot plate latency; after 60 min): 10.53 ± 1.8 s
- % Protection (hot plate latency; after 90 min): 36.03%
- Latency Period ± SE (hot plate latency; after 90 min): 12.12 ± 1.7 s
- % Protection (hot plate latency; after 120 min, 10 mg/kg): 28%
- Latency Period ± SE (hot plate latency; after 120 min): 11.53 ± 1.3 s
- Potency (hot plate latency): 49.6
- % Inhibition of Edema ± Standard Error ([1]; 4 h): 7.4 ± 1.8%
- reduction in TNF-α mRNA levels (TNF-α mRNA): 86%
